# From US9403835B2, “Tetraaza-cyclopenta[a]indenyl and their use as positive allosteric modulators” (Merck Patent GmbH, priority 2011, dated 2016)
# How the values were obtained:
# [1] = target: T1, muscarinic M1 receptor (Homo sapiens, UniProt P11229); experiment: M1 PAM Assay (IP-One HTRF, IP1 in M1-CHO cells with EC20 of acetylcholine); assay type: cell-based; details: 1 hour at room temperature, IP1 readout
# T1 construct: expressed in transfected cells; host or cells: CHO (M1-CHO cells)
# T1 sequence (P11229 1-460): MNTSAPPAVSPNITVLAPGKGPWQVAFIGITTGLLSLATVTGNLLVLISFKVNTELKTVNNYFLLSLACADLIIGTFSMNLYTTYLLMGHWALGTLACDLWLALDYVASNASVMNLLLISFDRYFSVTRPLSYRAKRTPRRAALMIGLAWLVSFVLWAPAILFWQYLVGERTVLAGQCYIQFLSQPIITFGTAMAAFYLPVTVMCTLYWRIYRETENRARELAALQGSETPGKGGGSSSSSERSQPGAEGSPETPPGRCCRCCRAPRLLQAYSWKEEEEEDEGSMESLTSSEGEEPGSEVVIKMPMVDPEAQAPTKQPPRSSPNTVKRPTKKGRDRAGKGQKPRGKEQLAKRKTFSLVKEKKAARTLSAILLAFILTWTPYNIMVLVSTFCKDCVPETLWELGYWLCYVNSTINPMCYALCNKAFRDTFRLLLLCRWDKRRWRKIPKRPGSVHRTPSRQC
# Description: M1-CHO cells are plated in culture medium (HAM's F12, P/S, 10% FCS) on the day before the experiment with 10 000 cells/well in a 384 well plate (3750 Corning White 384 w plate with lid). On the day of experiment, cells are washed with PBS and IPone buffer is added (glucose 5.5 mM, NaCl 146 mM, MgCl2 0.5 mM, HEPES 10 mM, LiCl 50 mM, CaCl2 1 mM, KCl 4.2 mM). Then diluted compounds (1% DMSO final concentration) are added together with EC20 of acetylcholine and incubated with the cells for 1 hour at room temperature. The intracellular concentration of IP1 is then measured using the IP-One HTRF assay from Cisbio.
SMILES,melting point [°C],EC50 [1] [nM]
"Cc1nc2c3c(nn2c(C)c1Cl)CN(C(=O)c1ccccc1CN1CCC(O)C1)C3 (stereo not shown) [Example 72, (6-chloro-5,7-dimethyl-1H,3H-2,4,7a,8-tetraaza-cyclopenta[a]inden-2-yl)-[2-(3-hydroxy-pyrrolidin-1-ylmethyl)-phenyl]-methanone]",210 to 217,
"CC(C)Oc1ccccc1C(=O)N1Cc2nn3cc(Cl)cnc3c2C1 [Example 42, (6-chloro-1H,3H-2,4,7a,8-tetraaza-cyclopenta[a]inden-2-yl)-(2-isopropoxy-phenyl)-methanone]",160 to 161,1000 to 2000
"CCCCOc1ccccc1C(=O)N1Cc2nn3c(C)c(Cl)c(C)nc3c2C1 [Example 11, (2-butoxy-phenyl)-(6-chloro-5,7-dimethyl-1H,3H-2,4,7a,8-tetraaza-cyclopenta[a]inden-2-yl)-methanone]",167 to 169,200 to 1000
"Cc1nc2c3c(nn2c(C)c1Cl)CN(C(=O)c1ccccc1OCC(C)C)C3 [Example 30, (6-Chloro-5,7-dimethyl-1H,3H-2,4,7a,8-tetraaza-cyclopenta[a]inden-2-yl)-(2-isobutoxy-phenyl)-methanone]",184 to 187,1000 to 2000
"CCOc1c(F)cc(F)cc1C(=O)N1Cc2nn3c(C)c(Cl)c(C)nc3c2C1 [Example 28, (6-chloro-5,7-dimethyl-1H,3H-2,4,7a,8-tetraaza-cyclopenta[a]inden-2-yl)-(2-ethoxy-3,5-difluoro-phenyl)-methanone]",153 to 155,1000 to 2000
"Cc1nc2c3c(nn2c(C)c1C)CN(C(=O)c1ccccc1OCCN(C)C)C3 [Example 22, [2-(2-dimethylamino-ethoxy)-phenyl]-(5,6,7-trimethyl-1H,3H-2,4,7a,8-tetraaza-cyclopenta[a]inden-2-yl)-methanone]",148 to 150,200 to 1000
"CCOc1ccc(Br)cc1C(=O)N1Cc2nn3c(C)c(C)c(C)nc3c2C1 [Example 45, (5-bromo-2-ethoxy-phenyl)-(5,6,7-trimethyl-1H,3H-2,4,7a,8-tetraaza-cyclopenta[a]inden-2-yl)-methanone]",208 to 215,1000 to 2000
"Cc1nc2c3c(nn2c(C)c1Cl)CN(C(=O)c1ccccc1OCCN(C)C)C3 [Example 8, (6-chloro-5,7-dimethyl-1H,3H-2,4,7a,8-tetraaza-cyclopenta[a]inden-2-yl)-[2-(2-dimethylamino-ethoxy)-phenyl]-methanone]",156 to 159,200 to 1000
"CSCCOc1ccccc1C(=O)N1Cc2nn3c(C)c(Cl)c(C)nc3c2C1 [Example 15, (6-chloro-5,7-dimethyl-1H,3H-2,4,7a,8-tetraaza-cyclopenta[a]inden-2-yl)-[2-(2-methylsulfanyl-ethoxy)-phenyl]-methanone]",183 to 185,200 to 1000
"Cc1nc2c3c(nn2c(C)c1Cl)CN(C(=O)c1ccccc1OC(F)(F)F)C3 [Example 14, (6-chloro-5,7-dimethyl-1H,3H-2,4,7a,8-tetraaza-cyclopenta[a]inden-2-yl)-(2-trifluoromethoxy-phenyl)-methanone]",179 to 181,200 to 1000
"Cc1nc2c3c(nn2c(C)c1C)CN(C(=O)c1ccccc1Br)C3 [Example 49, (2-bromo-phenyl)-(5,6,7-trimethyl-1H,3H-2,4,7a,8-tetraaza-cyclopenta[a]inden-2-yl)-methanone]",,1000 to 2000
"CCNc1ccccc1C(=O)N1Cc2nn3c(C)c(C)c(C)nc3c2C1 [Example 37, (2-ethylamino-phenyl)-(5,6,7-trimethyl-1H,3H-2,4,7a,8-tetraaza-cyclopenta[a]inden-2-yl)-methanone]",,1000 to 2000
"Cc1nc2c3c(nn2c(C)c1C)CN(C(=O)c1ccccc1C(F)(F)F)C3 [Example 43, (2-trifluoromethyl-phenyl)-(5,6,7-trimethyl-1H,3H-2,4,7a,8-tetraaza-cyclopenta[a]inden-2-yl)-methanone]",,1000 to 2000
"CCOc1cc(F)ccc1C(=O)N1Cc2nn3c(C)c(Cl)c(C)nc3c2C1 [Example 5, (6-chloro-5,7-dimethyl-1H,3H-2,4,7a,8-tetraaza-cyclopenta[a]inden-2-yl)-(2-ethoxy-4-fluoro-phenyl)-methanone]",,200 to 1000
"Cc1nc2c3c(nn2c(C)c1Cl)CN(C(=O)c1ccc(F)cc1OCCn1cccn1)C3 [Example 18, (6-chloro-5,7-dimethyl-1H,3H-2,4,7a,8-tetraaza-cyclopenta[a]inden-2-yl)-[4-fluoro-2-(2-pyrazol-1-yl-ethoxy)-phenyl]-methanone]",,200 to 1000
"Cc1nc2c3c(nn2c(C)c1C)CN(C(=O)c1ccccc1OCCC1CCCCC1)C3 [Example 40, [2-(2-cyclohexyl-ethoxy)-phenyl]-(5,6,7-trimethyl-1H,3H-2,4,7a,8-tetraaza-cyclopenta[a]inden-2-yl)-methanone]",,1000 to 2000

# Second part, the compound after the results:
melting point [°C],EC50 [1] [nM],SMILES
174 to 177,,"Cc1nc2c3c(nn2c(C)c1Cl)CN(C(=O)c1ccccc1CN1C[C@H]2CN(C)C[C@H]2C1)C3 [Example 94, (6-chloro-5,7-dimethyl-1H,3H-2,4,7a,8-tetraaza-cyclopenta[a]inden-2-yl)-[2-((3aR,6aS)-5-methyl-hexahydro-pyrrolo[3,4-c]pyrrol-2-ylmethyl)-phenyl]-methanone]"
165 to 170,,"Cc1nc2c3c(nn2c(C)c1Cl)CN(C(=O)c1ccccc1CN1CCCC(N)C1)C3 (stereo not shown) [Example 125, [2-(3-amino-piperidin-1-ylmethyl)-phenyl]-(6-chloro-5,7-dimethyl-1H,3H-2,4,7a,8-tetraaza-cyclopenta[a]inden-2-yl)-methanone]"
180 to 182,,"Cc1nc2c3c(nn2c(C)c1Cl)CN(C(=O)c1ccccc1CN1CCN2CCCC2C1)C3 (stereo not shown) [Example 97, (6-chloro-5,7-dimethyl-1H,3H-2,4,7a,8-tetraaza-cyclopenta[a]inden-2-yl)-[2-(hexahydro-pyrrolo[1,2-a]pyrazin-2-ylmethyl)-phenyl]-methanone]"
208 to 210,,"O=C(c1ccc(F)cc1OC(F)(F)C(F)F)N1Cc2nn3cc(Cl)cnc3c2C1 [Example 138, (6-chloro-1H,3H-2,4,7a,8-tetraaza-cyclopenta[a]inden-2-yl)-[4-fluoro-2-(1,1,2,2-tetrafluoro-ethoxy)-phenyl]-methanone]"
195 to 200,,"Cc1nc2c3c(nn2c(C)c1Cl)CN(C(=O)c1ccccc1CN1CCNC(C)C1)C3 (stereo not shown) [Example 116, (6-chloro-5,7-dimethyl-1H,3H-2,4,7a,8-tetraaza-cyclopenta[a]inden-2-yl)-[2-(3-methyl-piperazin-1-ylmethyl)-phenyl]-methanone]"
185 to 192,,"Cc1nc2c3c(nn2c(C)c1Cl)CN(C(=O)c1ccccc1CN1CCCNCC1)C3 [Example 118, (6-chloro-5,7-dimethyl-1H,3H-2,4,7a,8-tetraaza-cyclopenta[a]inden-2-yl)-(2-[1,4]diazepan-1-ylmethyl-phenyl)-methanone]"
194 to 196,,"O=C(c1ccccc1OC(F)(F)C(F)F)N1Cc2nn3cc(Cl)cnc3c2C1 [Example 106, (6-chloro-1H,3H-2,4,7a,8-tetraaza-cyclopenta[a]inden-2-yl)-[2-(1,1,2,2-tetrafluoro-ethoxy)-phenyl]-methanone]"
159 to 162,,"Cc1nc2c3c(nn2c(C)c1Cl)CN(C(=O)c1ccccc1CN1CC(N(C)C)C1)C3 [Example 126, (6-chloro-5,7-dimethyl-1H,3H-2,4,7a,8-tetraaza-cyclopenta[a]inden-2-yl)-[2-(3-dimethylamino-azetidin-1-ylmethyl)-phenyl]-methanone]"
168 to 174,,"Cc1nc2c3c(nn2c(C)c1Cl)CN(C(=O)c1ccccc1CN(CCN(C)C)CC(F)(F)F)C3 [Example 154, (6-chloro-5,7-dimethyl-1H,3H-2,4,7a,8-tetraaza-cyclopenta[a]inden-2-yl)-(2-{[(2-dimethylamino-ethyl)-(2,2,2-trifluoro-ethyl)-amino]-methyl}-phenyl)-methanone]"
176 to 183,,"Cc1nc2c3c(nn2c(C)c1Cl)CN(C(=O)c1ccccc1CN1CCNCC1=O)C3 [Example 117, 1-[2-(6-chloro-5,7-dimethyl-1H,3H-2,4,7a,8-tetraaza-cyclopenta[a]indene-2-carbonyl)-benzyl]-piperazin-2-one]"
223 to 227,,"Cc1nc2c3c(nn2c(C)c1Cl)CN(C(=O)c1ccccc1CN1CCC(O)(C(F)(F)F)CC1)C3 [Example 90, (6-chloro-5,7-dimethyl-1H,3H-2,4,7a,8-tetraaza-cyclopenta[a]inden-2-yl)-[2-(4-hydroxy-4-trifluoromethyl-piperidin-1-ylmethyl)-phenyl]-methanone]"
138 to 141,,"Cc1nc2c3c(nn2c(C)c1Cl)CN(C(=O)c1ccccc1CN1CCCN(C)CC1)C3 [Example 95, (6-Chloro-5,7-dimethyl-1H,3H-2,4,7a,8-tetraaza-cyclopenta[a]inden-2-yl)-[2-(4-methyl-[1,4]diazepan-1-ylmethyl)-phenyl]-methanone]"
